Data on 44 molecules can be found in patent publication US20250214969A1, “PROTEIN DEGRADERS AND USES THEREOF” (Kymera Therapeutics, Inc., priority 2022, published 2025).

Assay [1] concerns the target T1, truncated His-MBP-Tev-KLHDC2 (residues 1-363) (Homo sapiens, UniProt Q9Y2U9).
T1 construct: truncated His -MBP-Tev-KLHDC2 (residues 1-363) purified from E. coli; made in house; host or cells: E. coli
T1 sequence (Q9Y2U9 1-363): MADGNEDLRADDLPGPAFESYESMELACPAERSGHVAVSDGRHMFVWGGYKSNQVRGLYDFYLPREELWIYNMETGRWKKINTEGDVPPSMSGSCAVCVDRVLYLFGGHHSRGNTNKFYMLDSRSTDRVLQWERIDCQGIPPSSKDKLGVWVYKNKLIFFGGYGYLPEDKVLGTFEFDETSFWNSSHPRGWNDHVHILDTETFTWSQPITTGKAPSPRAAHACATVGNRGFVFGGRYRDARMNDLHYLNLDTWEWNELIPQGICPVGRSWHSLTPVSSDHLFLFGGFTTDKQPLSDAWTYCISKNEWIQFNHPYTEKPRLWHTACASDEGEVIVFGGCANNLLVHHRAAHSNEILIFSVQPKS
The assay is described as follows: KLHDC2 HTRF binding assay. Conditions: 1 nM KLHDC2 (residues 1-363), fluorescein-labeled diglycine peptide probe. Background: TR-FRET usually uses a lanthanide donor and a delayed reading to cut background.
Procedure: HTRF binding assays were performed using 1 nM truncated His -MBP-Tev-KLHDC2 (residues 1-363) purified from E. coli, 0.2 nM terbium-anti-His antibody (CisBio), 1 nM fluorescein-labeled diglycine peptide probe, and test compounds in assay buffer consisting of 50 mM HEPES-Na pH 7.5, 100 mM NaCl, 2 mM DTT, 0.005% Tween-20 with a final volume of 20 uL. Compound stocks were dissolved at 10 mM in 100% DMSO and 11 point titration with 3 fold serial dilution was performed in white, opaque 384 well microplates. Reaction plates were incubated at room temperature for 30 minutes. Plates were centrifuged at low rpm for 5 mins, and the ratio of fluorescence intensities were measured at emission wavelengths for fluorescein acceptor (520 nm) and terbium donor (495 nm) on Envision Plate reader. % Inhibition was calculated from the 520/495 ratio generated by the no protein controls for 100% inhibition and DMSO only reactions for 0l % inhibition.

The target in assay [2] is T1, truncated His-MBP-Tev-KLHDC2 (residues 1-363). The assay is described as follows: KLHDC2 FP competition binding assay. Conditions: 15 nM KLHDC2 (residues 1-363), 10 nM fluorescein-labeled diglycine peptide probe, read-out: KLHDC2 binding Human FP: average external IC50.
Procedure: FP competition binding assays were performed using 15 nM truncated His -MBP-Tev-KLHDC2 (residues 1-363) purified from E. coli, 10 nM fluorescein-labeled diglycine peptide probe, and test compounds in assay buffer consisting of 50 mM HEPES-Na pH 7.5, 100 mM NaCl, 2 mM DTT, 0.005% Tween-20 with a final volume of 20 uL. Compound stocks were dissolved at 10 mM in 100% DMSO and 11 point titration with 3 fold serial dilution was performed in black, flat bottom 384 well microplates. Plates were incubated at room temperature for 30 minutes. Plates were centrifuged at 1000 rpm for 1 min, data were collected using an Envision plate reader in fluorescence polarization mode with excitation filter FITC FP at 480 nm, emission filter FITC FP P-pol at 535 nm and FITC FP S-pol at 535 nm. FP signal was calculated using the equation (mP=1000*(S-G*P)/(S+G*P), G-factor=1.0) and % Inhibition was calculated using no-protein controls for 100% inhibition and DMSO only reactions for 0l % inhibition (yes).

As to `CCOC(=O)Cn1cc(NC(=O)c2ccc(CCCCCCN)c(-c3cccnc3)c2)ccc1=O` [I-147], the IC50 in assay [1] and in assay [2] was greater than 5 µM in each case.
Take `COc1cc(-c2nccs2)ccc1C(=O)Nc1ccc(=O)n(CC(=O)O)c1` [I-148]: the half-maximal inhibitory concentration (IC50) in assay [1] and in assay [2] was 0.5 to 5 µM in each case.
`COc1cc(-c2ccccn2)ccc1C(=O)Nc1ccc(=O)n(CC(=O)O)c1` [I-149]: the IC50 in assay [1] and in assay [2] was 0.5 to 5 µM each time.
Take `CCOC(=O)Cn1cc(NC(=O)c2ccc(CCCCCCNC(=O)OC(C)(C)C)c(-c3cccnc3)c2)ccc1=O` [I-150]: the IC50 in assay [1] and in assay [2] was greater than 5 µM in each case.
In the case of `Nc1ccc2cc(C(=O)Nc3ccc(=O)n(CC(=O)O)c3)ccc2c1` [I-151], the IC50 in assay [1] is 0.5 to 5 µM; in assay [2], greater than 5 µM.
On to `CCOC(=O)Cn1cc(NC(=O)c2cccc(-c3cnccc3CCCCCCN)c2)ccc1=O` [I-152], for which the 50% inhibitory concentration (IC50) in assay [1] and in assay [2] was greater than 5 µM each time.
As to `COc1cc(-c2cccs2)ccc1C(=O)Nc1ccc(=O)n(CC(=O)O)c1` [I-153], the IC50 in assay [1] and in assay [2] was 0.5 to 5 µM each time.
With `COc1cc(-c2cncs2)ccc1C(=O)Nc1ccc(=O)n(CC(=O)O)c1` [I-154], the figures for the IC50 in assay [1] and in assay [2] were 0.5 to 5 µM and greater than 5 µM, respectively.
`COc1cc(-c2ccc(F)cc2)ccc1C(=O)Nc1ccc(=O)n(CC(=O)O)c1` [I-155]: the IC50 in assay [1] was 0.05 to 0.5 µM; in assay [2], 0.5 to 5 µM.
Regarding `CCOC(=O)Cn1cc(NC(=O)c2cccc(-c3cnccc3CCCCCCNC(=O)OC(C)(C)C)c2)ccc1=O` [I-156], the IC50 in assay [1] and in assay [2] was greater than 5 µM in each case.
As for `CCOC(=O)Cn1cc(NC(=O)c2cc(CCCCCCN)cc(-c3cccnc3)c2)ccc1=O` [I-157], the IC50 in assay [1] and in assay [2] was greater than 5 µM each time.
For `CCOC(=O)Cn1cc(NC(=O)c2cccc(-c3cncc(CCCCCCNC(=O)OC(C)(C)C)c3)c2)ccc1=O` [I-158], the IC50 in assay [1] and in assay [2] was greater than 5 µM throughout.
Consider `CCOC(=O)Cn1cc(NC(=O)c2cccc(-c3cncc(CCCCCCN)c3)c2)ccc1=O` [I-159], for which the IC50 in assay [1] and in assay [2] was greater than 5 µM throughout.
For the molecule `CC(C)(C)OC(=O)NCCCCCCn1ccc2c(C(=O)Nc3ccc(=O)n(CC(=O)O)c3)cccc21` [I-160], the figures for the IC50 in assay [1] and in assay [2] were 0.05 to 0.5 µM and 0.5 to 5 µM, respectively.
Consider `O=C(O)Cn1cc(NC(=O)c2ccc(-c3ccccc3)cc2F)ccc1=O` [I-161], for which the IC50 in assay [1] and in assay [2] was 0.5 to 5 µM in each case.
In the case of `CCOC(=O)Cn1cc(NC(=O)c2cc(CCCCCCNC(=O)OC(C)(C)C)cc(-c3cccnc3)c2)ccc1=O` [I-162], the IC50 in assay [1] and in assay [2] was greater than 5 µM in each case.
`NCCCCCCc1ccncc1-c1cccc(C(=O)Nc2ccc(=O)n(CC(=O)O)c2)c1` [I-163]: the IC50 in assay [1] and in assay [2] was 0.5 to 5 µM in each case.
For `CC(C)(C)OC(=O)NCCCCCCc1ccncc1-c1cccc(C(=O)Nc2ccc(=O)n(CC(=O)O)c2)c1` [I-164], the IC50 fell in the range of 0.05 to 0.5 µM in assay [1] and 0.5 to 5 µM in assay [2].
For `CC(C)(C)OC(=O)NCCCCCCc1cc(C(=O)Nc2ccc(=O)n(CC(=O)O)c2)cc(-c2cccnc2)c1` [I-165], the half-inhibitory concentration (IC50) in assay [1] was less than 0.05 µM; in assay [2], 0.05 to 0.5 µM.
For `NCCCCCCc1cc(C(=O)Nc2ccc(=O)n(CC(=O)O)c2)cc(-c2cccnc2)c1` [I-166], the IC50 in assay [1] and in assay [2] was 0.5 to 5 µM throughout.
As to `NCCCCCCc1cncc(-c2cccc(C(=O)Nc3ccc(=O)n(CC(=O)O)c3)c2)c1` [I-167], the IC50 in assay [1] lay within 0.05 to 0.5 µM; in assay [2], 0.5 to 5 µM.
Regarding `O=C(O)Cn1cc(NC(=O)c2cccc(-c3cncs3)c2)ccc1=O` [I-168], the IC50 is 0.5 to 5 µM in assay [1] and greater than 5 µM in assay [2].
In the case of `CC(C)(C)OC(=O)NCCCCCCc1cncc(-c2cccc(C(=O)Nc3ccc(=O)n(CC(=O)O)c3)c2)c1` [I-169], the results for the IC50 in assay [1] and in assay [2] were less than 0.05 µM and 0.05 to 0.5 µM, respectively.
For `Cc1ccc(C(=O)Nc2ccc(=O)n(CC(=O)O)c2)nc1-c1cccnc1` [I-170], the IC50 is 0.5 to 5 µM in assay [1] and greater than 5 µM in assay [2].
In the case of `Cc1cc(C(=O)Nc2ccc(=O)n(CC(=O)O)c2)sc1-c1cccnc1` [I-171], the concentration for half-maximal inhibition (IC50) in assay [1] and in assay [2] was greater than 5 µM in each case.
For `O=C(O)Cn1cc(NC(=O)c2cccc(-c3cccs3)c2)ccc1=O` [I-172, 2-(2-oxo-5-(3-(thiophen-2-yl)benzamido)pyridin-1 (2H)-yl) acetic acid], the IC50 in assay [1] and in assay [2] was greater than 5 µM each time.
For the molecule `Cc1ccc(C(=O)Nc2ccc(=O)n(CC(=O)O)c2)nc1-c1ccccc1` [I-173], the half-maximal inhibitory concentration (IC50) is 0.5 to 5 µM in assay [1] and greater than 5 µM in assay [2].
For `CC(C)c1ccc(C(=O)Nc2ccc(=O)n(CC(=O)O)c2)cc1-c1cccnc1` [I-174], the IC50 in assay [1] and in assay [2] was 0.5 to 5 µM in each case.
Regarding `CC(C)c1ccc(C(=O)Nc2ccc(=O)n(CC(=O)O)c2)cc1-c1ccccc1` [I-175], the half-maximal inhibitory concentration (IC50) was 0.5 to 5 µM in assay [1] and greater than 5 µM in assay [2].
Take `O=C(O)Cn1cc(NC(=O)c2ccc3nc(Cl)ccc3c2)ccc1=O` [I-176]: the IC50 in assay [1] and in assay [2] was greater than 5 µM in each case.
Consider `O=C(O)Cn1cc(NC(=O)c2ccc3cc(Cl)ccc3c2)ccc1=O` [I-177], for which the IC50 in assay [1] was 0.5 to 5 µM; in assay [2] it was greater than 5 µM.
In the case of `Cn1cc(-c2cccc(C(=O)Nc3ccc(=O)n(CC(=O)O)c3)c2)ccc1=O` [I-178], the half-maximal inhibitory concentration (IC50) in assay [1] and in assay [2] was greater than 5 µM each time.
On to `CC(C)c1ccc(S(=O)(=O)NCCC(=O)Nc2ccc(=O)n(CC(=O)O)c2)cc1` [I-180], for which the IC50 in assay [1] and in assay [2] was greater than 5 µM in each case.
`CCc1ccc(C(=O)Nc2ccc(=O)n(CC(=O)O)c2)cc1-c1cccnc1` [I-181]: the IC50 is 0.5 to 5 µM in assay [1] and greater than 5 µM in assay [2].
The matching figures for `CCc1ccc(C(=O)Nc2ccc(=O)n(CC(=O)O)c2)cc1-c1ccccc1` [I-182]: 0.5 to 5 µM and greater than 5 µM.
Regarding `O=C(O)Cn1cc(NC(=O)[C@H]2CC[C@H](NC(=O)C3CCCC3)CC2)ccc1=O` [I-183], the IC50 in assay [1] and in assay [2] was greater than 5 µM throughout.
On to `O=C(O)CC(C(=O)n1ccc2ccccc21)c1ccc(=O)n(CC(=O)O)c1` (stereo not shown) [I-184], for which the IC50 in assay [1] and in assay [2] was greater than 5 µM in each case.
Regarding `O=C(O)Cn1cc(NC(=O)c2ccc(-c3ccccc3)c(Cl)c2)ccc1=O` [I-185], the figures for the IC50 in assay [1] and in assay [2] were 0.5 to 5 µM and greater than 5 µM, respectively.
The matching figures for `COc1nc2ccccc2cc1C(=O)Nc1ccc(=O)n(CC(=O)O)c1` [I-186]: greater than 5 µM and greater than 5 µM.
`Cc1ccc2nc(C(=O)Nc3ccc(=O)n(CC(=O)O)c3)ccc2c1` [I-187]: the IC50 in assay [1] and in assay [2] was greater than 5 µM throughout.
For the molecule `CCCOc1nc2ccccc2cc1C(=O)Nc1ccc(=O)n(CC(=O)O)c1` [I-188], the IC50 in assay [1] and in assay [2] was greater than 5 µM each time.
`Cc1ccc2cc(C(=O)Nc3ccc(=O)n(CC(=O)O)c3)cnc2c1` [I-189]: the IC50 in assay [1] and in assay [2] was greater than 5 µM throughout.
Turning to `O=C(O)Cn1cc(NC(=O)CCNC(=O)c2ccc3ccccc3c2)ccc1=O` [I-190], the IC50 in assay [1] and in assay [2] was greater than 5 µM in each case.
Regarding `Cc1ccc2cc(C(=O)Nc3ccc(=O)n(CC(=O)O)c3)c(C)nc2c1` [I-191], the IC50 in assay [1] and in assay [2] was greater than 5 µM throughout.

Broadly, the IC50 is the concentration that inhibits the measured activity by half.
